Each block holds one molecule with its values, some of them ahead of it.
Assays:
Assay type in all cases: physicochemical
[1] = Storage stability of the epoxide at room temperature
Description: The epoxidation may be performed on the starting olefinic compound by any suitable method known in the art, but is preferably conducted through a potassium monopersulfate/acetone oxidation of the olefinic portion of the corresponding styrene. The styrene compound is suspended in a mixture of acetone and water, and buffered with sodium bicarbonate, which serves to prevent decomposition of the resultant oxides. This suspension is then treated with an excess of the oxidant, provided as an aqueous solution of the monopersulfate compound (2KHSO5.KHSO4.K2SO4,) (Oxone®, a product of DuPont). The recovered solution is partitioned with ethyl acetate, toluene, methylene chloride, or other suitable solvent. Workup consists of washing the organic layer with water followed by drying with a non-acidic drying agent (e.g., anhydrous […]). Filtering this mixture, followed by removal of organic solvent in vacuo, affords the desired epoxide in high yield without further purification. […]
A suspension of 1 equivalent of 1,3-diisopropenyl benzene (5mL, 0.925g/mL, 29.2mmol) and 6 equivalents of sodium bicarbonate (15.9g, 190mmol) in a 2 : 1 mixture (volume : volume) of acetone : water (total 450mL) was treated with an aqueous solution containing 2 equivalents of potassium persulfate (Oxone®) (36.5g, 59.3mmol). […] The pH was monitored during this time and remained neutral. […]

[2] = Photo-DSC analysis of various styrene oxides formulated with photoinitiator and diol (Example 6)
Description: A sample in the range of 1.5 to 3.0 mg for each composition was exposed to UV radiation and the rate of cure followed by a DPA-7 Perkin-Elmer Photo-Differential Scanning Calorimeter (P-DSC). Each sample was equilibrated to constant temperature (25 °C) on the Calorimeter for one minute and then exposed to irradiation for a total of four minutes using a 100 Watt Mercury short arc lamp. […] In the Tables, Tmax is the time it took to reach the peak maximum exotherm in seconds, and ΔH is the exotherm of the reaction in kJoules per mole of epoxy, measured as the area over the cure from the four minute baseline back to the onset of exotherm.
Photo-DSC of various styrene oxides was conducted by formulating the epoxides with a photoinitiator and a diol.

[3] = Photo-DSC (P-DSC) UV cure of epoxide/diol adhesive compositions (Example 3)
Description: These compositions were compared to control formulations containing a cycloaliphatic epoxide obtained from Union Carbide, as product ERL-4221, which has the structure: [drawing 5]
A sample in the range of 1.5 to 3.0 mg for each composition was exposed to UV radiation and the rate of cure followed by a DPA-7 Perkin-Elmer Photo-Differential Scanning Calorimeter (P-DSC). Each sample was equilibrated to constant temperature (25 °C) on the Calorimeter for one minute and then exposed to irradiation for a total of four minutes using a 100 Watt Mercury short arc lamp. […] The diol used in the compositions, the molar ratio of epoxy to diol, and the DSC results are set out in Table 1 for the inventive styrene epoxy, and in Table 2 for the cycloaliphatic epoxy. In the Tables, Tmax is the time it took to reach the peak maximum exotherm in seconds, and ΔH is the exotherm of the reaction in kJoules per mole of epoxy, measured as the area over the cure from the four minute baseline back to the onset of exotherm.
The time the reaction takes to reach Tmax is a direct indication of the speed of the reaction; thus, the shorter the time (i.e. the sharper the peak), the faster the cure reaction for the epoxy, which is a desirable property for these adhesive compositions. In the following tables, the peak are designated either sharp or broad; for purposes herein, if more than half the exotherm occurred in the first 30 seconds, the peak was defined as sharp, and conversely, if less than half the exotherm occurred in the first 30 seconds, the peak was defined as broad.
The ΔH values are a direct indication of the degree of epoxy ring opening, with the more negative numbers reflecting the higher degree of conversion of the epoxy.

[4] = Stepanol PS-4002, Epoxy:Diol 1:1
[5] = Stepanol PS-4002, Epoxy:Diol 3:1

advancement of the epoxide ([1]; after one year at room temperature): no advancement
Molecule: divinylbenzene dioxide [Example 2]

Molecule: CC1OC1c1ccccc1 (stereo not drawn) [beta-methyl styrene epoxy, beta-methyl styrene mono-epoxide]
ΔH ([2]; MP-diol, Epoxy:Diol 1:1): -102.6 kJ/Mole EPOXIDE | ΔH ([2]; MP-diol, Epoxy:Diol 3:1): -75.7 kJ/Mole EPOXIDE | ΔH ([2]; Tone polyol, Epoxy:Diol 1:1): -80.5 kJ/Mole EPOXIDE | ΔH ([2]; Tone polyol, Epoxy:Diol 3:1): -54.5 kJ/Mole EPOXIDE | ΔH ([2]; no diol): -85.4 kJ/Mole EPOXIDE

Molecule: CC1(c2ccccc2)CO1 (stereo not drawn) [alpha methyl styrene epoxy]
ΔH ([2]; MP-diol, Epoxy:Diol 1:1): -80.9 kJ/Mole EPOXIDE | ΔH ([2]; MP-diol, Epoxy:Diol 3:1): -56.4 kJ/Mole EPOXIDE | ΔH ([2]; Tone polyol, Epoxy:Diol 1:1): -76.5 kJ/Mole EPOXIDE | ΔH ([2]; Tone polyol, Epoxy:Diol 3:1): -66.7 kJ/Mole EPOXIDE | ΔH ([2]; no diol): -53.3 kJ/Mole EPOXIDE

ΔH ([2]; MP-diol, Epoxy:Diol 1:1): -57.8 kJ/Mole EPOXIDE | ΔH ([2]; MP-diol, Epoxy:Diol 3:1): -63.6 kJ/Mole EPOXIDE | ΔH ([2]; Tone polyol, Epoxy:Diol 1:1): -98,8 kJ/Mole EPOXIDE | ΔH ([2]; Tone polyol, Epoxy:Diol 3:1): -82,4 kJ/Mole EPOXIDE | ΔH ([2]; no diol): -43.9 kJ/Mole EPOXIDE
Molecule: COCC1OC1c1ccccc1 (stereo not drawn) [cinnamyl methyl ether epoxy, cinnamyl methyl ether epoxide]

ΔH ([2]; MP-diol, Epoxy:Diol 1:1): -27.5 kJ/Mole EPOXIDE | ΔH ([2]; MP-diol, Epoxy:Diol 3:1): -16.1 kJ/Mole EPOXIDE | ΔH ([2]; Tone polyol, Epoxy:Diol 1:1): -55.6 kJ/Mole EPOXIDE | ΔH ([2]; Tone polyol, Epoxy:Diol 3:1): -30.8 kJ/Mole EPOXIDE | ΔH ([2]; no diol): 0 kJ/Mole EPOXIDE
Molecule: CC(=O)OCC1OC1c1ccccc1 (stereo not drawn) [cinnamyl acetate epoxy, cinnamyl acetate epoxide]

ΔH ([3]; MP-diol, Epoxy:Diol 1:1): -78.4 kJ/mole epoxide | ΔH ([3]; MP-diol, Epoxy:Diol 3:1): -49.0 kJ/mole epoxide | ΔH ([3]; Rucoflex 107, Epoxy:Diol 1:1): -68.9 kJ/mole epoxide | ΔH ([3]; Rucoflex 107, Epoxy:Diol 3:1): -42.9 kJ/mole epoxide | ΔH [3, 4]: -79.4 kJ/mole epoxide | ΔH [3, 5]: -14.3 kJ/mole epoxide | ΔH ([3]; SynFac 8031, Epoxy:Diol 1:1): -67.8 kJ/mole epoxide | ΔH ([3]; SynFac 8031, Epoxy:Diol 3:1): -39.7 kJ/mole epoxide | ΔH ([3]; Tone 0201, Epoxy:Diol 1:1): -62.0 kJ/mole epoxide | ΔH ([3]; Tone 0201, Epoxy:Diol 1:3): -44.0 kJ/mole epoxide | ΔH ([3]; Tone 0201, Epoxy:Diol 3:1): -30.3 kJ/mole epoxide | ΔH ([3]; no diol, 1% UVI-6974, 25 °C): -10.0 kJ/mole epoxide | extents of cure ([3]; range over all diols and ratios of Tables 1 and 2): -79.4 to -10.0 kJ
Molecule: O=C(OCC1CCC2OC2C1)C1CCC2OC2C1 (stereo not drawn) [ERL-4221]
Tmax ([3]; MP-diol, Epoxy:Diol 1:1): 21.20 s | Tmax ([3]; MP-diol, Epoxy:Diol 3:1): 6.39 s | Tmax ([3]; Rucoflex 107, Epoxy:Diol 1:1): 6.81 s | Tmax ([3]; Rucoflex 107, Epoxy:Diol 3:1): 2.10 s | Tmax [3, 4]: 17.10 s | Tmax [3, 5]: 5.34 s | Tmax ([3]; SynFac 8031, Epoxy:Diol 1:1): 13.47 s | Tmax ([3]; SynFac 8031, Epoxy:Diol 3:1): 13.17 s | Tmax ([3]; Tone 0201, Epoxy:Diol 1:1): 9.21 s | Tmax ([3]; Tone 0201, Epoxy:Diol 1:3): 42.66 s | Tmax ([3]; Tone 0201, Epoxy:Diol 3:1): 6.00 s | Tmax ([3]; no diol, 1% UVI-6974, 25 °C): 4.62 s

Molecule: 1,3-diisopropenylbenzene dioxide [Example 1]
Tmax ([3]; MP-diol, Epoxy:Diol 1:1): 4.35 s | ΔH ([3]; MP-diol, Epoxy:Diol 1:1): -77.4 kJ/mole epoxide | Tmax ([3]; MP-diol, Epoxy:Diol 3:1): 2.94 s | ΔH ([3]; MP-diol, Epoxy:Diol 3:1): -58.2 kJ/mole epoxide | Tmax ([3]; Rucoflex 107, Epoxy:Diol 1:1): 4.32 s | ΔH ([3]; Rucoflex 107, Epoxy:Diol 1:1): -84.1 kJ/mole epoxide | Tmax ([3]; Rucoflex 107, Epoxy:Diol 3:1): 4.20 s | ΔH ([3]; Rucoflex 107, Epoxy:Diol 3:1): -79.1 kJ/mole epoxide | Tmax [3, 4]: 6.12 s | ΔH [3, 4]: -76.0 kJ/mole epoxide | Tmax [3, 5]: 4.83 s | ΔH [3, 5]: -62.6 kJ/mole epoxide | Tmax ([3]; SynFac 8031, Epoxy:Diol 1:1): 4.74 s | ΔH ([3]; SynFac 8031, Epoxy:Diol 1:1): -71.8 kJ/mole epoxide | Tmax ([3]; SynFac 8031, Epoxy:Diol 3:1): 3.57 s | ΔH ([3]; SynFac 8031, Epoxy:Diol 3:1): -65.5 kJ/mole epoxide | Tmax ([3]; Tone 0201, Epoxy:Diol 1:1): 3.57 s | ΔH ([3]; Tone 0201, Epoxy:Diol 1:1): -73.4 kJ/mole epoxide | Tmax ([3]; Tone 0201, Epoxy:Diol 1:3): 4.59 s | ΔH ([3]; Tone 0201, Epoxy:Diol 1:3): -75.9 kJ/mole epoxide | Tmax ([3]; Tone 0201, Epoxy:Diol 3:1): 3.96 s | ΔH ([3]; Tone 0201, Epoxy:Diol 3:1): -56.4 kJ/mole epoxide | Tmax ([3]; no diol, 1% UVI-6974, 25 °C): 3.84 s | ΔH ([3]; no diol, 1% UVI-6974, 25 °C): -57.8 kJ/mole epoxide | ΔH ([2]; Tone polyol, Epoxy:Diol 1:1): -72.8 kJ/Mole EPOXIDE | ΔH ([2]; no diol): -57.8 kJ/Mole EPOXIDE | advancement of the epoxide ([1]; after 13 days at room temperature): no advancement

ΔH ([2]; MP-diol, Epoxy:Diol 1:1): -70,1 kJ/Mole EPOXIDE | ΔH ([2]; MP-diol, Epoxy:Diol 3:1): -67.6 kJ/Mole EPOXIDE | ΔH ([2]; Tone polyol, Epoxy:Diol 1:1): -75.0 kJ/Mole EPOXIDE | ΔH ([2]; Tone polyol, Epoxy:Diol 3:1): -65.0 kJ/Mole EPOXIDE | ΔH ([2]; no diol): -15.7 kJ/Mole EPOXIDE
Molecule: COc1cc(C2OC2C)ccc1OC(C)=O (stereo not drawn) [isoeugenol acetate epoxy, isoeugenol acetate epoxide]
